In BigSolDB 2.1:

Conditions: in water

solubility (mole fraction) (298.15 K) | solubility (mole fraction) (303.15 K) | solubility (mole fraction) (308.15 K) | solubility (mole fraction) (313.15 K) | solubility (mole fraction) (318.15 K) | solubility (mole fraction) (323.15 K) | Structure (SMILES)
4.8e-06 | 6.9e-06 | 9.9e-06 | 1.24e-05 | 1.51e-05 | 1.89e-05 | Cc1ccc(C(C)C)cc1
0.000181 | 0.000332 | 0.000472 | 0.000592 | 0.000844 | 0.00111 | C=CC(C)(O)CCC=C(C)C (stereo not drawn)
0.000144 | 0.000155 | 0.000164 | 0.000169 | 0.00017 | 0.000172 | Cc1ccc(C(C)C)cc1O
0.000228 | 0.00023 | 0.000254 | 0.000254 | 0.000286 | 0.000312 | C=CCc1ccc(O)c(OC)c1
0.000103 | 0.000139 | 0.000375 | 0.000643 | 0.000922 | 0.00127 | CC(C)=CCC/C(C)=C/CO
0.000218 | 0.000187 | 0.000187 | 0.000208 | 0.000249 | 0.000308 | CC(C)=CCCC(C)CCO (stereo not drawn)

Structure (SMILES) | solubility (mole fraction) (298.15 K) | solubility (mole fraction) (303.15 K) | solubility (mole fraction) (308.15 K) | solubility (mole fraction) (313.15 K) | solubility (mole fraction) (318.15 K) | solubility (mole fraction) (323.15 K)
Cc1ccccc1 | 0.000113 | – | 0.000118 | 0.00012 | – | 0.000126
Cc1ccc(C)cc1 | 2.62e-05 | – | 3.07e-05 | – | – | 3.65e-05
